# Experimental data reported in PMC7153024, “New 8-Nitroquinolinone Derivative Displaying Submicromolar in Vitro Activities against Both Trypanosoma brucei and cruzi” (ACS Medicinal Chemistry Letters, 2020).
# “And” between values parts separate entries of the source, which are not always exact repeats. Equal entries are not always repeated.
# Columns and labels:
# [1] = Redox potentials by cyclic voltammetry in DMSO; settings: 13 vs hit 2; 9, hit 1 and 2 vs pharmacophore; 10 vs 9; 5 vs 2
# human albumin = assay: Human albumin binding assay; assay type: in vitro ADME
# Procedure: are kept at 4 °C for immediate analysis or placed at -80 °C in case of postponement of the analysis.
# Controls (t0 and tfinal) in triplicate are prepared by incubation of the internal standard with microsomes denatured by acetonitrile. The LC-MS used for this study is a Waters® Acquity I-Class / Xevo TQD, equipped with a Waters® Acquity BEH C18 column, 50 x 2.1 mm, 1.7 μm. The mobile phases are (A) […]
# The injection volume is 1 µL and […]
# the flow rate is 600 µL/min.
# 98% (B); […]; 2.6 < t < 4 min, 2% (B). Compound 8-bromo-6- […]
# chloro-3-nitro-2-(phenylsulfonylmethyl)imidazo[1,2-a]pyridine is used as internal standard. The quantification of each compound is obtained by converting the average of the ratios of the analyte/internal standard surfaces to the percentage of consumed product. The ratio of the control at t0 corresponds to 0% of product consumed. The calculation of the half-life (t1/2) of each compound in the […]
# presence of microsomes is done according to the equation: . Where k is the first-order t1=k […]
# degradation constant (the slope of the logarithm of compound concentration versus incubation time).
# The intrinsic clearance in vitro (Cl int expressed in μL/min/mg) is calculated according to the equation:
# Clint= [microsomes]. […]
# [2] = test system: T. brucei brucei trypomastigotes; assay: Antitrypanosomal activity on T. brucei brucei trypomastigotes (AnTat 1.9, Alamar Blue); assay type: cell-based, Trypanosoma brucei brucei; settings: HepG2 CC50 versus T. b. brucei EC50
# [3] = PAMPA assay using a blood-brain barrier (BBB) model; assay type: in vitro ADME; settings: tested concentration 100 µM, pH 7.4
structure (smiles),measurement,setting,value
O=C(O)c1ccc(-c2cc3cc(Br)cc([N+](=O)[O-])c3[nH]c2=O)cc1 [Compound 13],Shift of the E° value versus the comparator compound,[1],+0.16 V
same,Albumin binding assay,human albumin,> 99%
same,Selectivity index regarding T. b. brucei,[2],> 200
same,BBB PAMPA assay Pe,[3],1.27 ×10⁻⁶ cm/s and 1.27 ± 0.09 ×10⁻⁶ cm/s
